Measured values published in the NIST ThermoML archive (doi:10.1021/je9004992).

Assay: molar heat capacity at constant pressure
Conditions: Liquid, Small sample (50 mg) DSC

CCCCn1cc[n+](C)c1.F[B-](F)(F)F [1-butyl-3-methylimidazolium tetrafluoroborate]
molar heat capacity at constant pressure [J/K/mol]
Conditions | 283.15 K | 288.15 K | 293.15 K | 298.15 K | 303.15 K | 308.15 K | 313.15 K | 318.15 K | 323.15 K
100 kPa | 360.25 | 362.17 | 364.16 | 366.2 | 368.3 | 370.45 | 372.67 | 374.95 | 377.29
2000 kPa | 360.28 | 362.2 | 364.17 | 366.21 | 368.31 | 370.47 | 372.69 | 374.97 | 377.31
4000 kPa | 360.31 | 362.22 | 364.19 | 366.23 | 368.33 | 370.49 | 372.71 | 374.99 | 377.34
6000 kPa | 360.34 | 362.24 | 364.21 | 366.25 | 368.34 | 370.5 | 372.73 | 375.01 | 377.36
8000 kPa | 360.37 | 362.27 | 364.23 | 366.26 | 368.36 | 370.52 | 372.74 | 375.03 | 377.39
10000 kPa | 360.39 | 362.29 | 364.25 | 366.28 | 368.37 | 370.53 | 372.76 | 375.05 | 377.41
12000 kPa | 360.42 | 362.31 | 364.27 | 366.3 | 368.39 | 370.55 | 372.78 | 375.08 | 377.44
14000 kPa | 360.45 | 362.34 | 364.29 | 366.31 | 368.4 | 370.57 | 372.8 | 375.1 | 377.47
20000 kPa | 360.54 | 362.4 | 364.35 | 366.36 | 368.45 | 370.61 | 372.85 | 375.16 | 377.54
30000 kPa | 360.68 | 362.52 | 364.44 | 366.45 | 368.53 | 370.69 | 372.94 | 375.26 | 377.67
40000 kPa | 360.82 | 362.64 | 364.54 | 366.53 | 368.61 | 370.77 | 373.03 | 375.37 | 377.8
50000 kPa | 360.96 | 362.75 | 364.64 | 366.61 | 368.69 | 370.85 | 373.12 | 375.47 | 377.93
60000 kPa | 361.11 | 362.87 | 364.73 | 366.7 | 368.77 | 370.93 | 373.21 | 375.58 | 378.05

CCn1cc[n+](C)c1.F[B-](F)(F)F [1-ethyl-3-methylimidazolium tetrafluoroborate]
molar heat capacity at constant pressure [J/K/mol]
Conditions | 283.15 K | 288.15 K | 293.15 K | 298.15 K | 303.15 K | 308.15 K | 313.15 K | 318.15 K | 323.15 K
100 kPa | 300.19 | 301.67 | 303.23 | 304.87 | 306.58 | 308.36 | 310.23 | 312.17 | 314.18
2000 kPa | 300.22 | 301.7 | 303.26 | 304.9 | 306.61 | 308.4 | 310.26 | 312.2 | 314.21
4000 kPa | 300.24 | 301.73 | 303.29 | 304.93 | 306.64 | 308.43 | 310.29 | 312.23 | 314.24
6000 kPa | 300.27 | 301.76 | 303.32 | 304.96 | 306.67 | 308.46 | 310.32 | 312.26 | 314.27
8000 kPa | 300.3 | 301.79 | 303.35 | 304.99 | 306.7 | 308.49 | 310.35 | 312.29 | 314.3
10000 kPa | 300.33 | 301.82 | 303.38 | 305.02 | 306.73 | 308.52 | 310.38 | 312.32 | 314.33
12000 kPa | 300.35 | 301.85 | 303.41 | 305.05 | 306.77 | 308.55 | 310.42 | 312.35 | 314.36
14000 kPa | 300.38 | 301.87 | 303.44 | 305.08 | 306.8 | 308.59 | 310.45 | 312.38 | 314.39
20000 kPa | 300.46 | 301.96 | 303.53 | 305.18 | 306.89 | 308.68 | 310.54 | 312.47 | 314.48
30000 kPa | 300.6 | 302.1 | 303.68 | 305.33 | 307.05 | 308.84 | 310.7 | 312.63 | 314.63
40000 kPa | 300.73 | 302.25 | 303.83 | 305.49 | 307.21 | 309 | 310.86 | 312.79 | 314.78
50000 kPa | 300.87 | 302.39 | 303.98 | 305.64 | 307.37 | 309.16 | 311.02 | 312.94 | 314.93
60000 kPa | 301 | 302.54 | 304.13 | 305.8 | 307.52 | 309.32 | 311.17 | 313.1 | 315.08

CCCCCCn1cc[n+](C)c1.F[B-](F)(F)F [1-hexyl-3-methylimidazolium tetrafluoroborate]
molar heat capacity at constant pressure [J/K/mol]
Conditions | 283.15 K | 288.15 K | 293.15 K | 298.15 K | 303.15 K | 308.15 K | 313.15 K | 318.15 K | 323.15 K
100 kPa | 422.77 | 425 | 427.34 | 429.8 | 432.36 | 435.03 | 437.81 | 440.7 | 443.69
2000 kPa | 422.81 | 425.04 | 427.38 | 429.83 | 432.39 | 435.06 | 437.84 | 440.72 | 443.72
4000 kPa | 422.85 | 425.08 | 427.42 | 429.87 | 432.43 | 435.1 | 437.87 | 440.75 | 443.74
6000 kPa | 422.89 | 425.12 | 427.46 | 429.91 | 432.47 | 435.13 | 437.9 | 440.78 | 443.77
8000 kPa | 422.94 | 425.17 | 427.5 | 429.95 | 432.5 | 435.17 | 437.93 | 440.81 | 443.8
10000 kPa | 422.98 | 425.21 | 427.54 | 429.99 | 432.54 | 435.2 | 437.97 | 440.84 | 443.82
12000 kPa | 423.02 | 425.25 | 427.59 | 430.03 | 432.58 | 435.23 | 438 | 440.87 | 443.85
14000 kPa | 423.07 | 425.29 | 427.63 | 430.07 | 432.61 | 435.27 | 438.03 | 440.9 | 443.88
20000 kPa | 423.2 | 425.42 | 427.75 | 430.18 | 432.72 | 435.37 | 438.13 | 440.99 | 443.96
30000 kPa | 423.41 | 425.63 | 427.95 | 430.38 | 432.91 | 435.55 | 438.29 | 441.14 | 444.09
40000 kPa | 423.63 | 425.84 | 428.15 | 430.57 | 433.09 | 435.72 | 438.45 | 441.28 | 444.22
50000 kPa | 423.85 | 426.05 | 428.36 | 430.77 | 433.28 | 435.89 | 438.61 | 441.43 | 444.35
60000 kPa | 424.07 | 426.26 | 428.56 | 430.96 | 433.46 | 436.07 | 438.77 | 441.58 | 444.49
